Measured values taken from ChEMBL document CHEMBL1147306, “Studies on inhibitors of skin tumor promotion, VI. Inhibitory effects of quinones on Epstein-Barr virus activation” (J Nat Prod, 1989).

Columns and labels:
Assay type in all cases: cell-based
Raji [1] = test: Inhibition of TPA-induced EBV-early antigen activation in human Raji cells at 100 molar ratio after 48 hrs by indirect immunofluorescence technique relative to TPA; conditions: human gammaherpesvirus 4
Raji [2] = test: Inhibition of TPA-induced EBV-early antigen activation in human Raji cells at 500 molar ratio after 48 hrs by indirect immunofluorescence technique relative to TPA; conditions: human gammaherpesvirus 4
[3] = Cytotoxicity against human Raji cells assessed as cell viability at 500 molar ratio; conditions: read-out: Activity
[4] = Cytotoxicity against human Raji cells assessed as cell viability at 100 molar ratio; conditions: read-out: Activity
Raji [5] = test: Inhibition of TPA-induced EBV-early antigen activation in human Raji cells at 10 molar ratio after 48 hrs by indirect immunofluorescence technique relative to TPA; conditions: human gammaherpesvirus 4
[6] = Cytotoxicity against human Raji cells assessed as cell viability at 10 molar ratio; conditions: read-out: Activity
[7] = Cytotoxicity against human Raji cells assessed as cell viability at 1000 molar ratio; conditions: read-out: Activity

Row | SMILES | EBV-EA activation % of TPA control (Raji [1]) [%] | EBV-EA activation % of TPA control (Raji [2]) [%] | viability at 500 molar ratio [3] [%] | viability at 100 molar ratio [4] [%] | EBV-EA activation % of TPA control (Raji [5]) [%] | viability at 10 molar ratio [6] [%] | viability at 1000 molar ratio [7] [%]
1 | Cc1ccnc2c1C(=O)c1ccccc1-2 [ONYCHINE] | 100 | 94.1 | > 80 | > 80 | 100 | > 80 | 70
2 | COc1ccc(OC)c2c1C(=O)c1nccc(C)c1C2=O | 100 | 100 | > 80 | > 80 | 100 | > 80 | 70
3 | O=C1c2ccccc2-c2ncccc21 | 100 | 97.6 | > 80 | > 80 | 100 | > 80 | 70
4 | CN(C)C1=CC(=O)c2cccc(O)c2C1=O | 89.7 | 53.8 | > 80 | > 80 | 100 | > 80 | > 80
5 | CC1C=CNC2=C1C(=O)c1c(O)ccc(O)c1C2=O (configuration not stated) | 100 | 20.4 | 70 | > 80 | 100 | > 80 | 10
6 | COc1c(CO)c(O)cc2c1C(=O)c1ccccc1C2=O [DAMNACANTHOL] | 100 | 91.2 | > 80 | > 80 | 100 | > 80 | 70
7 | O=C1c2ccccc2C(=O)c2sccc21 [THIOPHENONAPHTHOQUINONE] | 52.8 | 0 | 0 | 70 | 81.4 | > 80 | 0
8 | Cc1cc(O)c2c(c1)C(=O)c1cc(O)cc(O)c1C2=O [EMODIN] | 91.1 | 54.2 | > 80 | > 80 | 100 | > 80 | > 80
9 | O=C1c2cccc(O)c2C(=O)c2cccc(O)c21 [ANTHRARUFIN] | 92.3 | 70.1 | > 80 | > 80 | 100 | > 80 | 70
10 | O=C1c2cccc(O)c2C(=O)c2c(O)cccc21 [DANTHRON] | 71.2 | 61.9 | > 80 | > 80 | 94.2 | > 80 | > 80
11 | COc1c(CO)c(O)cc2c1C(=O)c1cccc(O)c1C2=O [JUZUNOL] | 100 | 100 | > 80 | > 80 | 100 | > 80 | > 80
12 | O=C1c2ccccc2C(=O)c2c1ccc(O)c2O [ATHRAQUINONES A] | 100 | 92.4 | > 80 | > 80 | 100 | > 80 | 60
13 | O=C1C=CC(=O)c2ccccc21 [NAPHTHOQUINONE] | 37.5 | 0 | 50 | 50 | 100 | > 80 | 20
14 | O=C(O)c1cc(O)c2c(c1)[C@@H]([C@H]1c3cc(C(=O)O)cc(O)c3C(=O)c3c(O[C@@H]4O[C@H](CO)[C@@H](O)[C@H](O)[C@H]4O)cccc31)c1cccc(O[C@@H]3O[C@H](CO)[C@@H](O)[C@H](O)[C@H]3O)c1C2=O [SENNOSIDE B] | 100 | 100 | > 80 | > 80 | 100 | > 80 | 70
15 | Cc1ccc2c(n1)C(=O)c1c(O)cccc1C2=O | 56.8 | 17.3 | 50 | > 80 | 92.4 | > 80 | 10
16 | CN(C)C1=CC(=O)c2c(O)ccc(O)c2C1=O | 87.2 | 28.2 | > 80 | > 80 | 100 | > 80 | 50

Row | SMILES | EBV-EA activation % of TPA control (Raji [1]) [%] | EBV-EA activation % of TPA control (Raji [2]) [%] | viability at 500 molar ratio [3] [%] | viability at 100 molar ratio [4] [%] | EBV-EA activation % of TPA control (Raji [5]) [%] | viability at 10 molar ratio [6] [%] | viability at 1000 molar ratio [7] [%]
17 | O=C1c2ccc(O)cc2C(=O)c2ccc(O)cc21 [ANTHRAFLAVICACID] | 89.9 | 78.6 | > 80 | > 80 | 100 | > 80 | > 80
18 | Cc1cnc2c(c1)C(=O)c1cccc(O)c1C2=O | 72.4 | 15.8 | > 80 | 60 | 100 | > 80 | 30
19 | CC1=CC(=O)c2ccccc2C1=O [MENADIONE] | 65.7 | 0 | 0 | 70 | 89.4 | > 80 | 0
20 | Cc1ccnc2c1C(=O)c1cccc(O)c1C2=O | 67.4 | 15.4 | 60 | > 80 | 89.1 | > 80 | 40
21 | O=C1c2ccccc2C(=O)c2c(O)ccc(O)c21 [QUINIZARIN] | 100 | 100 | > 80 | > 80 | 100 | > 80 | 70
22 | O=C1c2ccccc2C(=O)c2c(O)c(O)cc(O)c21 [PURPURIN] | 100 | 54.3 | > 80 | > 80 | 100 | > 80 | 70
23 | Cc1ccnc2c1C(=O)c1ccccc1C2=O [CLEISTOPHOLINE] | 77.5 | 48.7 | > 80 | > 80 | 100 | > 80 | 70
24 | Cc1cnc2c(c1)C(=O)c1c(O)ccc(O)c1C2=O | 82.6 | 16.8 | 50 | > 80 | 100 | > 80 | 40
25 | CC1(c2cc3c(o2)C(=O)c2ccccc2C3=O)OCCO1 | 0 | 0 | 10 | 10 | 32.4 | 60 | 0
26 | Cc1ccnc2c1C(O)c1ccccc1-2 (configuration not stated) | 100 | 100 | > 80 | > 80 | 100 | > 80 | > 80
27 | O=C1C=CC(=O)c2c(O)ccc(O)c21 [NAPHTHAZALIN] | 0 | 0 | 40 | 50 | 68.9 | > 80 | 20
28 | O=C1c2ccccc2C(=O)c2cnccc21 | 69.5 | 13 | 10 | > 80 | 100 | > 80 | 10
29 | O=C1C=CC(=O)c2c(O)cccc21 [JUGLONE] | 97.8 | 13.1 | 60 | > 80 | 100 | > 80 | 40
30 | Cc1cnc2c(c1)C(=O)c1ccccc1C2=O | 76.5 | 48.7 | > 80 | > 80 | 100 | > 80 | 70
31 | O=C1c2ccc(O)c(O)c2C(=O)c2c(O)ccc(O)c21 [QUINALIZARIN] | 88.4 | 0 | 60 | > 80 | 100 | > 80 | 40
